Structures can show the parent of a compound that is named as a salt. Where two headings read alike, the source gives them in different places.

Assay [1] addresses T1, catalytic domain of human Bub1 (amino acids 704-1085) (Homo sapiens, UniProt O43683).
T1 construct: catalytic domain of human Bub1 (amino acids 704-1085); His6 (N); made in house; host or cells: Hi5 insect cells
Description: Bub1 kinase assay (TR-FRET). It is filed as biochemical. In short, it runs like this:
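TR-FRET read-out (Eu-anti-mouse IgG/anti-phosphoserine antibody to streptavidin-XL665 on biotinylated peptide) after EDTA stop and 1 h complex formation at 22° C. Kinase reaction ran 60 min at 22° C with 1:3.4 serial dilutions from 2 mM DMSO stocks. IC50 from 4-parameter logistic fit of normalized inhibition.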
(Time-resolved FRET reads energy transfer from a long-lived donor to a nearby acceptor.)

For a further assay, the target named is Bub1 (Homo sapiens, UniProt O43683). Put plainly: Formation-Assay: phosphorylation status of histone 2A by inhibition of kinase activity of Bub1. Format: cell-based. Particulars: Biological Assay 4.1: H2A Formation IC50, co-treatment with Nocodazole 1 μg/ml, 16 h. As for the experimental part:
Biological Assay 4.1: Formation-Assay
Cell-Based Mechanistic Assay: Changes of Phosphorylation Status of Histone 2A by Inhibition of Kinase Activity of Bub1
This assay determines the suppression of histone 2A phosphorylation by a Bub1 kinase inhibitor during co-treatment with Nocodazole. 25000 cells (cells were ordered from ATCC) were seeded in 96 well plate for 5 h at 37° C. Cells were treated with Nocodazole (1 μg/ml) and varying concentrations (between 3 nM and 10 μM) of test compounds for 16 h. Cells were fixed (20 min, Fixing solution R&D), washed three times with PBS and blocked with Odyssey blocking buffer before incubating with the primary antibody against phosphorylated H2A (5 μg/ml ABIN482721) overnight at 2-8° C. After washing, secondary IRDye-labeled antibody mix with cell stains was added for 1 h and washed again with PBS. Plates were scanned with LiCor Odyssey Infrared Imager CLx at 800 nm for P-H2A and at 700 nm for cell stains Draq5/Sapphire. The quotient of 800 nm and 700 nm for Nocodazole only treated cells was set as 100% and the quotient of 800 nm and 700 nm of untreated cells was set as 0%.
Histone H2A is an immediate intracellular substrate of Bub1 kinase. Determination of the phosphorylation status of Histone H2A provides a direct measure of the intracellular activity of Bub1 kinase.

The subject of the next assay is HeLa. Description: Proliferation assay (HeLa cell line).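 Also: crystal violet staining of cell number, scaled between a plate stained before dosing (0%) and cells left untreated (100%), compounds tested at 0.001-10 µM, IC50 via 4-parameter fit.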 Particulars: Homo sapiens, 96 h, read-out: Biological Assay 2: Proliferation assay (HeLa cell line) median IC50.
Assay [2] concerns HeLa human cervical tumor cells. Put plainly: Proliferation assay (HeLa+Paclitaxel).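 Also: compounds at 0.001-10 µM added 4 h after paclitaxel, 92 h exposure, absorbance normalized to zero-point plate (0%) and untreated cells (100%), IC50 from 4-parameter fit.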 Particulars: read-out: Biological Assay 3: HeLa + Paclitaxel IC50, 3 nM paclitaxel, crystal violet.
Where [3] appears, read: 10 μM ATP, read-out: Biological Assay 1: Bub1 kinase assay median IC50.
Where [4] appears, read: Biological Assay 1: Bub1 kinase assay median IC50, 10 μM ATP.

T1 sequence (O43683 704-1085): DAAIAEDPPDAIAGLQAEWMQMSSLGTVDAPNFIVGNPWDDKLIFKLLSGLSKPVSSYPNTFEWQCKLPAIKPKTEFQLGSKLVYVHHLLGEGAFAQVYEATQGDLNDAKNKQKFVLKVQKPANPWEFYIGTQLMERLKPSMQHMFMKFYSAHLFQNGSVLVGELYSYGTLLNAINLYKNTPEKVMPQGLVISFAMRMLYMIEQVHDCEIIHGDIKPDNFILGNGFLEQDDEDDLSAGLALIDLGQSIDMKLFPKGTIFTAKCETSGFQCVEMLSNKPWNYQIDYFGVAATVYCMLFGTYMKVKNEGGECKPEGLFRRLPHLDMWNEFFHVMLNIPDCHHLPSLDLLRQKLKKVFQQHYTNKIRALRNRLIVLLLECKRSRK
Sequence of Bub1 (O43683 whole entry): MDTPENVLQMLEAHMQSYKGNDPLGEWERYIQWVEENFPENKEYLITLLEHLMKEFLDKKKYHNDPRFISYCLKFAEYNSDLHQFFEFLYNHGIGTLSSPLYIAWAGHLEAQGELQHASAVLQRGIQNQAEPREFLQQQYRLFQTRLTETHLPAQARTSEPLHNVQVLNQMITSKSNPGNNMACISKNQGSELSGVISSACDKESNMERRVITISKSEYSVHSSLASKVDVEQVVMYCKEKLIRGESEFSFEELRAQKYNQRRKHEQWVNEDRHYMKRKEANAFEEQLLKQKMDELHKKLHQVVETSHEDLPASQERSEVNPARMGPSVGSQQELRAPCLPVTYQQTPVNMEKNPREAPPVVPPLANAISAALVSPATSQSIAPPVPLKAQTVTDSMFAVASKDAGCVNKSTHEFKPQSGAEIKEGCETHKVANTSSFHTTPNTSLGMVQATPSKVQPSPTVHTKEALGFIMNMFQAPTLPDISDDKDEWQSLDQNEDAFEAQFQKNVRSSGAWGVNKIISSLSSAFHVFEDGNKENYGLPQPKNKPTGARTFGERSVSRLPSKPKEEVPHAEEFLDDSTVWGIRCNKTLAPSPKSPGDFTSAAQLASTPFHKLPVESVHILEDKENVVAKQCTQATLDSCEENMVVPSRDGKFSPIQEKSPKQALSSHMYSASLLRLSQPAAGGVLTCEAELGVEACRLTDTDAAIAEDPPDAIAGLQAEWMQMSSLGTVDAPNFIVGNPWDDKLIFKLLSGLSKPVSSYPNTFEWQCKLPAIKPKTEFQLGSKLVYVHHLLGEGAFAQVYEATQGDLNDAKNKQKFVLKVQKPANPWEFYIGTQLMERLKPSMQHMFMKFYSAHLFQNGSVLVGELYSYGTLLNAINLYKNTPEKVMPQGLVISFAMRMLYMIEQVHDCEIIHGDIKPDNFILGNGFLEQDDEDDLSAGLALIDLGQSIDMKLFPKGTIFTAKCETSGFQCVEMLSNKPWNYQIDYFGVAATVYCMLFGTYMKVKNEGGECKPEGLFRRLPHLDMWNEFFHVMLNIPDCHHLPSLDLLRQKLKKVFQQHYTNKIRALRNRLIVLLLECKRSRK

For the compound `CCOc1cc(F)c(Cn2nc(-c3ncc(C4CNC4)c(Nc4ccncc4)n3)c3ccccc32)c(F)c1` [Example 2-9-1, 5-(azetidin-3-yl)-2-[1-(4-ethoxy-2,6-difluorobenzyl)-1H-indazol-3-yl]-N-(pyridin-4-yl)pyrimidin-4-amine, salt with hydrochloric acid], the IC50 turned out to be 9.4 nM in assay [1] (setting [3]), 17 nM on Bub1 and 1300 nM in the assay on HeLa.
For `CCOc1cc(F)c(Cn2nc(-c3ncc(OCC(=O)N4CC(F)(F)C4)c(Nc4ccncc4)n3)c3ccccc32)c(F)c1` [Example 3-5-1, 1-(3,3-difluoroazetidin-1-yl)-2-({2-[1-(4-ethoxy-2,6-difluorobenzyl)-1H-indazol-3-yl]-4-(pyridin-4-ylamino)pyrimidin-5-yl}oxy)ethanone, reference compound], the IC50 in assay [1] (setting [4]) was found to be 8 nM; at Bub1, 360 nM; in the assay on HeLa it was 3900 nM.
The like results for `CC(=O)Nc1cc(Nc2nc(-c3nn(Cc4c(F)cc(OCCO)cc4F)c4ccccc34)nc3c2CCC3)ccn1` [Example 2-4-6, N-{4-[(2-{1-[2,6-difluoro-4-(2-hydroxyethoxy)benzyl]-1H-indazol-3-yl}-6,7-dihydro-5H-cyclopenta[d]pyrimidin-4-yl)amino]pyridin-2-yl}acetamide] were, in that order, 9.9 nM, 130 nM and 2100 nM.
As for `CCOc1cc(F)c(Cn2nc(-c3ncc(C4CCN(CC(F)F)CC4)c(Nc4ccncc4OC)n3)c3ccccc32)c(F)c1` [Example 2-11-5, 5-[1-(2,2-difluoroethyl)piper-idin-4-yl]-2-[1-(4-ethoxy-2,6-difluorobenzyl)-1H-indazol-3-yl]-N-(3-methoxypyridin-4-yl)pyrimidin-4-amine], the IC50 amounted to 23 nM in assay [1] (setting [4]), 8.3 nM on Bub1 and 1700 nM in the assay with HeLa.
The matching figures for `CCOc1cc(F)c(Cn2nc(-c3ncc(CCCS(C)(=O)=O)c(Nc4ccncc4)n3)c3ccccc32)c(F)c1` [Example 2-3-2, 2-[1-(4-ethoxy-2,6-difluorobenzyl)-1H-indazol-3-yl]-5-[3-(methylsulfonyl)propyl]-N-(pyridin-4-yl)pyrimidin-4-amine]: 9 nM, 990 nM and 2800 nM.
As to `CCOc1cc(F)c(Cn2nc(-c3nc(Nc4cc(C)ncc4C)cc(C(F)(F)F)n3)c3ccccc32)c(F)c1` [Example 2-12-82, N-(2,5-dimethylpyridin-4-yl)-2-[1-(4-ethoxy-2,6-difluorobenzyl)-1H-indazol-3-yl]-6-(trifluoromethyl)pyr-imidin-4-amine], the IC50 was more than 20000 nM in assay [1] (setting [3]) and 30 nM at Bub1.
The like results for `CCOc1cc(F)c(Cn2nc(-c3nc(C)cc(Nc4ccncc4C(N)=O)n3)c3ccccc32)c(F)c1` [Example 2-10-2, 4-({2-[1-(4-ethoxy-2,6-difluorobenzyl)-1H-indazol-3-yl]-6-methylpyrimidin-4-yl}amino)pyridine-3-carboxamide] were, in that order, 5.5 nM and 140 nM.
As to `Cc1nccc(Nc2nc(-c3nn(Cc4c(F)cc(OCCO)cc4F)c4ccccc34)ncc2C2CCN(CC(F)F)CC2)n1` [Example 2-6-17, 2-{4-[(3-{5-[1-(2,2-difluoroethyl)piperidin-4-yl]-4-[(2-methylpyrimidin-4-yl)amino]pyrimidin-2-yl}-1H-indazol-1-yl)methyl]-3,5-difluorophenoxy} ethanol], the IC50 in assay [1] (setting [4]) was 58 nM; at Bub1, 6 nM; with HeLa it was 6800 nM.
Regarding `CCOc1cc(F)c(Cn2nc(-c3nc4c(c(Nc5cc(OC)ncn5)n3)CCC4)c3ccccc32)c(F)c1` [Example 2-12-26, 2-[1-(4-ethoxy-2,6-difluorobenzyl)-1H-indazol-3-yl]-N-(6-methoxypyrimidin-4-yl)-6,7-dihydro-5H-cyclopenta[d]pyrimidin-4-amine], the IC50 in assay [2] came out at 1000 nM; in assay [1] (setting [4]), 130 nM; with HeLa it was 8000 nM.
`COc1cnccc1Nc1cc(C(C)C)nc(-c2nn(Cc3c(F)cc(OCCO)cc3F)c3ccccc23)n1` [Example 2-6-29, 2-{3,5-difluoro-4-[(3-{4-isopropyl-6-[(3-methoxypyridin-4-yl)amino]pyrimidin-2-yl}-1H-indazol-1-yl)methyl]phenoxy}ethanol]: the IC50 in assay [2] amounted to 210 nM; in assay [1] (setting [3]), 31 nM; with HeLa, 1300 nM.
Take `CCOc1cc(F)c(Cn2nc(-c3nc(Nc4ccncc4OC)cc(C4CCCO4)n3)c3ccccc32)c(F)c1` (racemic) [Example 2-12-88, 2-[1-(4-ethoxy-2,6-difluorobenzyl)-1H-indazol-3-yl]-N-(3-methoxypyridin-4-yl)-6-[(2rac)-tetrahydrofuran-2-yl]pyrimidin-4-amine]: the IC50 came to 200 nM in assay [2], 5.8 nM in assay [1] (setting [4]) and 1200 nM in the assay on HeLa.
The matching figures for `CCOc1cc(F)c(Cn2nc(-c3nc(CN4CCOCC4)cc(Nc4cc(C)nc(C)n4)n3)c3ccccc32)c(F)c1` [Example 2-12-44, N-(2,6-dimethylpyrimidin-4-yl)-2-[1-(4-ethoxy-2,6-difluorobenzyl)-1H-indazol-3-yl]-6-(morpholin-4-ylmethyl)pyrimidin-4-amine]: 89 nM, 320 nM and 9600 nM.
In the case of `CCOc1cc(F)c(Cn2nc(-c3nc4c(c(Nc5ccnc(NC(=O)C6CC6)c5)n3)CCC4)c3ccccc32)c(F)c1` [Example 2-12-28, N-[4-({2-[1-(4-ethoxy-2,6-difluorobenzyl)-1H-indazol-3-yl]-6,7-dihydro-5H-cyclopenta[d]pyrimidin-4-yl}amino)pyridin-2-yl]cyclopropanecarbox-amide], the IC50 in assay [2] came out at 290 nM; in assay [1] (setting [4]) it was 9.4 nM; in the assay on HeLa it was 5300 nM.
`COc1cnccc1Nc1nc(-c2nn(Cc3c(F)cc(OCCO)cc3F)c3ccccc23)nc(C)c1C` [Example 2-6-31, 2-{3,5-difluoro-4-[(3-{4-[(3-methoxypyridin-4-yl)amino]-5,6-dimethylpyrimidin-2-yl}-1H-indazol-1-yl)methyl]phenoxy}ethanol]: the IC50 in assay [2] stood at 760 nM; in assay [1] (setting [3]), 6.7 nM; in the assay on HeLa, 4900 nM.
On to `COCCOc1cc(F)c(Cn2nc(-c3nc(CN4CCOCC4)cc(Nc4ccnnc4)n3)c3ccccc32)c(F)c1` [Example 2-12-39, N-[2-{1-[2,6-difluoro-4-(2-methoxyethoxy)benzyl]-1H-indazol-3-yl}-6-(morpholin-4-ylmethyl)pyrimidin-4-yl]pyridazin-4-amine], for which the IC50 in assay [2] is 770 nM; in assay [1] (setting [4]) it was 26 nM; in the assay with HeLa it was more than 10000 nM.
On to `Cc1cc(Nc2ccnc(C)n2)nc(-c2nn(Cc3c(F)cc(OCCO)cc3F)c3ccccc23)n1` [Example 2-6-27, 2-{3,5-difluoro-4-[(3-{4-methyl-6-[(2-methylpyrimidin-4-yl)amino]pyrimidin-2-yl}-1H-indazol-1-yl)methyl]phenoxy}ethanol], for which the IC50 in assay [2] turned out to be 290 nM; in assay [1] (setting [4]), 43 nM; in the assay on HeLa, 5100 nM.
For `CCOc1cc(F)c(Cn2nc(-c3ncc(CCS(C)(=O)=O)c(Nc4ccncc4)n3)c3ccccc32)c(F)c1` [Example 2-3-1, 2-[1-(4-ethoxy-2,6-difluorobenzyl)-1H-indazol-3-yl]-5-[2-(methylsulfonyl)ethyl]-N-(eparate-4-yl)pyrimidin-4-amine], the IC50 in assay [1] (setting [4]) came to 6.1 nM; at Bub1, 2300 nM; with HeLa, 3500 nM.
Regarding `COc1cnccc1Nc1cc(C)nc(-c2nn(Cc3c(F)cc(OCCO)cc3F)c3ccccc23)n1` [Example 2-6-33, 2-{3,5-difluoro-4-[(3-{4-[(3-methoxypyridin-4-yl)amino]-6-methylpyrimidin-2-yl}-1H-indazol-1-yl)methyl]phenoxy}ethanol], the figures for the IC50 (in assay [2]; in assay [1] (setting [3]); with HeLa) were 1800 nM, 5.7 nM and 3500 nM, respectively.
Regarding `CCOc1cc(F)c(Cn2nc(-c3nc4c(c(Nc5ccncc5C(=O)O)n3)CCC4)c3ccccc32)c(F)c1` [Example 2-14-9, 4-({2-[1-(4-ethoxy-2,6-difluorobenzyl)-1H-indazol-3-yl]-6,7-dihydro-5H-cyclopenta[d]pyrimidin-4-yl}amino)pyridine-3-carboxylic acid], the results for the IC50 (in assay [2]; in assay [1] (setting [4]); in the assay on HeLa) were more than 10000 nM, 66 nM and more than 10000 nM, respectively.

The values are drawn from patent publication US20170275270A1, “BENZYL SUBSTITUTED INDAZOLES” (Bayer Pharma Aktiengesellschaft, priority 2014, published 2017).
